Source: ChEMBL document CHEMBL1949568, “Discovery of diphenyl lactam derivatives as N-type calcium channel blockers” (Bioorg Med Chem Lett, 2012)
In brackets after ≈: the same amount, converted by molar mass. Activity calls are given as the source filed them. No cut-off for these calls is given here.

Experiments:
[1] = Aqueous solubility of the compound at pH 7; format: physicochemical
[2] = Inhibition of N-type calcium channel by FLIPR assay
[3] = Metabolic stability in rat liver microsomes assessed as compound remaining after 30 mins; format: ADME, Microsome; conditions: read-out: Stability
[4] = Metabolic stability in human liver microsomes assessed as compound remaining after 30 mins; format: ADME, Microsome; conditions: read-out: Stability
[5] = Half life in rat at 5 umol/kg, iv and 30 umol/kg, po; format: ADME, organism-based; conditions: in vivo
[6] = Volume of distribution at steady state in rat at 5 umol/kg, iv and 30 umol/kg, po; format: ADME, organism-based; conditions: in vivo, read-out: Vdss
[7] = Plasma clearance in rat at 5 umol/kg, iv and 30 umol/kg, po; format: ADME, organism-based
[8] = Oral bioavailability in rat at 30 umol/kg; format: ADME, organism-based; conditions: in vivo
[9] = AUC in rat at 30 umol/kg, po; format: ADME, organism-based; conditions: plasma
Rattus norvegicus [10] = assay: Antinociceptive activity in rat capsaicin model of secondary mechanical hyperalgesia assessed as inhibition of tactile allodynia at 150 mg/kg, po; format: functional, organism-based; set-up: dose 150 mg/kg
[11] = Half life in rat at 3 umol/kg, po; format: ADME, organism-based; conditions: in vivo
Rattus norvegicus [12] = assay: Volume of distribution at steady state in rat at 3 umol/kg, po; format: ADME, organism-based; conditions: in vivo
[13] = Plasma clearance in rat at 3 umol/kg, po; format: ADME, organism-based
[14] = Oral bioavailability in rat at 3 umol/kg; format: ADME, organism-based; conditions: in vivo
[15] = AUC in rat at 3 umol/kg, po; format: ADME, organism-based; conditions: plasma
Rattus norvegicus [16] = assay: Antinociceptive activity in rat capsaicin model of secondary mechanical hyperalgesia assessed as inhibition of tactile allodynia at 30 mg/kg, po; format: functional, organism-based; set-up: dose 30 mg/kg

`O=C(CN1CCCC(c2ccccc2)(c2ccccc2)C1=O)N1CCc2ccc(C(F)(F)F)cc2C1` showed a solubility [1] of less than 25 µM, an IC50 [2] of 4.44 µM and a pIC50 [2] of 5.35.

In the case of `O=C(CN1CCCC(c2ccccc2)(c2ccccc2)C1=O)N1CCC(C(c2ccccc2)c2ccccc2)CC1`, the solubility [1] is reported as less than 25 µM, the IC50 [2] is reported as 2.61 µM and the pIC50 [2] is reported as 5.58.

With `O=C(CN1CCCC(c2ccccc2)(c2ccccc2)C1=O)N1CCN(C(c2ccc(F)cc2)c2ccc(F)cc2)CC1` the solubility [1] was less than 25 µM, the IC50 [2] was 2.36 µM and the pIC50 [2] was 5.63.

`O=C(CN1CCCC(c2ccccc2)(c2ccccc2)C1=O)N1CCC(C(O)(c2ccccc2)c2ccccc2)CC1` gave a solubility [1] of less than 25 µM, an IC50 [2] of 1.74 µM and a pIC50 [2] of 5.76.

`O=C(CN1CCC(c2ccc(F)cc2)(c2ccc(F)cc2)C1=O)N1CCN(Cc2cccc(C(F)(F)F)c2)CC1` gave a solubility [1] of less than 25 µM, an IC50 [2] of 1.01 µM and a pIC50 [2] of 6.

Work on `O=C(CN1CCCC(c2ccccc2)(c2ccccc2)C1=O)N1CCN(Cc2ccc(Cl)cc2Cl)CC1` yielded a solubility [1] of less than 25 µM, an IC50 [2] of 1.8 µM and a pIC50 [2] of 5.75.

`O=C(CN1CCCC(c2ccc(F)cc2)(c2ccc(F)cc2)C1=O)N1CCN(C(c2ccccc2)c2ccccc2)CC1` showed a solubility [1] of less than 25 µM, an IC50 [2] of 4.61 µM and a pIC50 [2] of 5.34.

For `O=C(CN1CCCC(c2ccccc2)(c2ccccc2)C1=O)N1CCN(Cc2cccc(C(F)(F)F)c2)CC1`, the solubility [1] was less than 25 µM, the IC50 [2] was 0.93 µM and the pIC50 [2] was 6.03. It also gave a remaining at 0.5 h [3] of 1.2%, a remaining at 0.5 h [4] of 0.1% and a half-life [5] of 2.7 h. The Vd [6] was 5.9 L/kg, the clearance [7] was 41.7 mL/min/kg and the bioavailability [8] was 15.6%. It also gave an AUC [9] of 1000 ng·h/mL.

With `NCC1(CC(=O)O)CCCCC1` the inhibition (Rattus norvegicus [10]) was “Active”.

`O=C(CN1CCCC(c2ccccc2)(c2ccccc2)C1=O)N1CCN(Cc2cccc(Cl)c2)CC1` gave a solubility [1] of less than 25 µM, an IC50 [2] of 1.32 µM and a pIC50 [2] of 5.88.

`O=C(CN1CCCC(c2ccccc2)(c2ccccc2)C1=O)N1CCC(c2ccccc2)(c2ccccc2)CC1` showed a solubility [1] of less than 25 µM, an IC50 [2] of 0.66 µM and a pIC50 [2] of 6.18. It also gave a half-life [5] of 6.3 h, a Vd [6] of 11.4 L/kg and a clearance [7] of 45 mL/min/kg. It also gave a bioavailability [8] of 50% and an AUC [9] of 2990 ng·h/mL.

For `O=C(CN1CCC(c2ccccc2)(c2ccccc2)C1=O)N1CCN(Cc2ccc(F)cc2)CC1`, the solubility [1] was 57 µM (≈ 26.9 µg/mL), the IC50 [2] was 2.22 µM and the pIC50 [2] was 5.65.

`O=C(CN1CCC(c2ccccc2)(c2ccccc2)C1=O)N1CCN(Cc2cccc(C(F)(F)F)c2)CC1` showed a solubility [1] of less than 25 µM, an IC50 [2] of 1.03 µM and a pIC50 [2] of 5.99. The remaining at 0.5 h [3] was 0.1% and the remaining at 0.5 h [4] was 0.3%.

With `O=C(CN1CCCC(c2ccccc2)(c2ccccc2)C1=O)N1CCN(Cc2ccc(C(F)(F)F)cc2)CC1` the solubility [1] was less than 25 µM, the IC50 [2] was 1.38 µM and the pIC50 [2] was 5.86.

`O=C(CN1CCCC(c2ccccc2)(c2ccccc2)C1=O)N1CCC(NC(c2ccccc2)c2ccccc2)CC1` showed a solubility [1] of less than 25 µM, an IC50 [2] of 0.81 µM and a pIC50 [2] of 6.09. For the same molecule, the remaining at 0.5 h [3] was less than 0.1% and the remaining at 0.5 h [4] was less than 0.1%.

`O=C(CN1CCC(c2ccccc2)(c2ccccc2)C1=O)N1CCN(C(c2ccc(F)cc2)c2ccc(F)cc2)CC1` showed a solubility [1] of less than 25 µM, an IC50 [2] of 0.43 µM and a pIC50 [2] of 6.37.

`O=C(CN1CCCC(c2ccccc2)(c2ccccc2)C1=O)N1CCC(c2ccccc2)(c2ccccc2)C1` showed a solubility [1] of less than 25 µM, an IC50 [2] of 2.43 µM and a pIC50 [2] of 5.61.

For `O=C(CN1CCC(c2ccccc2)(c2ccccc2)C1=O)N1CCN(C(c2ccccc2)c2ccccc2)CC1`, the solubility [1] was less than 25 µM, the IC50 [2] was 0.72 µM and the pIC50 [2] was 6.14. The remaining at 0.5 h [3] was 0.4%, the half-life [11] was 5.6 h and the Vdss (Rattus norvegicus [12]) was 6.9 L/kg. For the same molecule, the CL/F [13] was 26.7 mL/min/kg, the bioavailability [14] was 16.4% and the AUC [15] was 159 ng·h/mL. For the same molecule, the inhibition (Rattus norvegicus [16]) was “Active”.

`O=C(CN1CCCC(c2ccc(F)cc2)(c2ccc(F)cc2)C1=O)N1CCN(Cc2cccc(C(F)(F)F)c2)CC1` gave a solubility [1] of less than 25 µM, an IC50 [2] of 1.36 µM and a pIC50 [2] of 5.87.

Molecule `O=C(CN1CCC(c2ccccc2)(c2ccccc2)C1=O)N1CCN(Cc2ccc(Cl)cc2Cl)CC1` has a solubility [1] of less than 25 µM, an IC50 [2] of 0.52 µM and a pIC50 [2] of 6.28.

Molecule `O=C(CN1CCC(c2ccccc2)(c2ccccc2)C1=O)N1CCN(C(c2ccccc2)c2ccc(F)cc2)CC1` (stereo not drawn) has a solubility [1] of less than 25 µM, an IC50 [2] of 0.45 µM and a pIC50 [2] of 6.35.

`O=C(CN1CCCC(c2ccccc2)(c2ccccc2)C1=O)N1CCN(C(c2ccccc2)c2ccccc2)CC1` showed a solubility [1] of less than 25 µM, an IC50 [2] of 1.38 µM and a pIC50 [2] of 5.86. For the same molecule, the remaining at 0.5 h [3] was 0.1%, the remaining at 0.5 h [4] was 0.1% and the half-life [11] was 5.2 h. For the same molecule, the Vdss (Rattus norvegicus [12]) was 5.8 L/kg, the CL/F [13] was 25 mL/min/kg and the bioavailability [14] was 16.6%. The AUC [15] was 186 ng·h/mL and the inhibition (Rattus norvegicus [16]) was “Active”.

Work on `O=C(CN1CCCC(c2ccccc2)(c2ccccc2)C1=O)N1CCCC(c2ccccc2)(c2ccccc2)C1` yielded a solubility [1] of less than 25 µM, an IC50 [2] of 0.81 µM and a pIC50 [2] of 6.09.

For `O=C(CN1CCC(c2ccccc2)(c2ccccc2)C1=O)N1CCN(C(c2ccccc2)c2ccc(Cl)cc2)CC1` (stereo not drawn), the solubility [1] was less than 25 µM, the IC50 [2] was 1.01 µM and the pIC50 [2] was 5.99.

For `O=C(CN1CCC(c2ccc(F)cc2)(c2ccc(F)cc2)C1=O)N1CCN(C(c2ccccc2)c2ccccc2)CC1`, the solubility [1] was less than 25 µM, the IC50 [2] was 0.83 µM and the pIC50 [2] was 6.08. It also gave a remaining at 0.5 h [3] of 2%, a remaining at 0.5 h [4] of 2.5% and a half-life [11] of 7.2 h. For the same molecule, the Vdss (Rattus norvegicus [12]) was 13.2 L/kg, the CL/F [13] was 36.7 mL/min/kg and the bioavailability [14] was 20.3%. The AUC [15] was 160 ng·h/mL and the inhibition (Rattus norvegicus [16]) was “Active”.

Work on `O=C(CN1CCC(c2ccccc2)(c2ccccc2)C1=O)N1CCN(Cc2c(Cl)cccc2Cl)CC1` yielded a solubility [1] of less than 25 µM, an IC50 [2] of 0.9 µM and a pIC50 [2] of 6.04.

Work on `O=C(CN1CCCC(c2ccccc2)(c2ccccc2)C1=O)N1CC(c2ccc(C(F)(F)F)cc2)C1` yielded a solubility [1] of less than 25 µM, an IC50 [2] of 3.07 µM and a pIC50 [2] of 5.51.
